The record followed here is patent US10479819B2 (priority 2014, dated 2019).

pEC50: −log10 of the molar value. Like-named read-outs stand apart in the source and are kept apart here. Starred links: 1 amine or outer side, 2 acyl side, 3 side chain; linkers in the order of their positions; H or OH if unused. Non-standard residues stand in square brackets, D forms with d. Residues, ends and D or L forms follow the SMILES beside them. Groups on a side chain read outwards from the residue. *: point of attachment. C18 diacid = O=C(O)CCCCCCCCCCCCCCCCC(=O)*; γGlu = O=C(O)[C@H](CCC(=O)[*:2])N[*:1]; Palmitoyl = CCCCCCCCCCCCCCCC(=O)*; PEG2 = NCCOCCOCCC(=O)O; Aib = CC(C)(N)C(=O)O

One data set has as its target T1, human GLP-1R (Homo sapiens, UniProt P43220).
T1 construct: expressed in transfected cells
Nature of the data set: In vitro activity on GLP-1R, CRE-luciferase HEK-293 cells. Particulars: for GLP-1R/GCGR: ratio of EC50 GLP-1R to EC50 GCGR. It is filed as cell-based. An outline of the steps:
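HEK-293 cells stably expressing human GLP-1R or human GCGR with CRE-luciferase reporter, 5000 cells/well in DMEM/10% FBS, exposed to compound. Luminescence read after luciferase reagent; EC50 taken from concentration-response curves.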

The target of a further data set is T2, human GCGR (Homo sapiens, UniProt P47871).
T2 construct: expressed in transfected cells
Nature of the data set: In vitro activity on GCGR, CRE-luciferase HEK-293 cells. The class given is cell-based. The procedure: 5000 of HEK-293 cells, which are used in CRE-luciferase system and express human GCGR or GLP-1R stably, were inoculated into 384 well plates according to […] DMEM/10% FBS media/well. […] After incubation, […] of luciferase reagent was added directly to each plate and mixed gently for 2 minutes. The plates were placed into an Elmer Perkin plate reader for reading. Concentration curve of the compound was made by drawing software Prism 5, and the EC50 value was calculated.

Data set [1] in a line: Pharmacokinetic analysis after IV or SC administration in male CD1 mice. The note with it: for Tmax / half-life: iv. The procedure:
Pharmacokinetic parameters of the drugs were calculated by methods of model dependence (for data obtained from IV) and model independence (data obtained from SC).

For a further data set, the system named is male C57B1/6J mice. Nature of the data set: Oral glucose tolerance test in male C57B1/6J mice. The class given is in vivo. Particulars: 250 μg/kg; for AUC of blood glucose in all four OGTT curve periods (0-480 min) compared with carrier (PBS): P<0.05; for effect on oral glucose tolerance: male C57B1/6J mice. The procedure: 12-16 week-old male C57B1/6J mice (Nanjing University model animal research center) were randomly divided into groups 8 in each group, according to similar blood glucose (assessed by the blood samples obtained from the tail tip). After fasting (for 6 hours), the animals were administrated, and about 4 hours later, initial blood samples (fasting blood glucose level) were taken. Subsequently, the animals were administrated with an oral dose of glucose, and then put back into their cages (t=0). Blood glucose was measured at t=15 minutes, t=30 minutes, t=60 minutes, t=90 minutes and t=120 minutes. And then the animals were administrated with an oral dose of glucose again, and blood glucose was tracked until 8 hours.

In the next data set the test system is DIO mice. Nature of the data set: Body weight reduction in DIO (obese) mice. It is filed as in vivo. The note with it: 250 μg/kg SC daily, day 11 to day 30, DIO mice. The text has this: Forty 25-week-old DIO mice (Nanjing University model animal research center) were randomly divided into five groups (compound 4, 5, 6, 7, and normal saline group), 8 in each group, having no difference in the basis weight of each group.

T1 sequence (P43220 24-463): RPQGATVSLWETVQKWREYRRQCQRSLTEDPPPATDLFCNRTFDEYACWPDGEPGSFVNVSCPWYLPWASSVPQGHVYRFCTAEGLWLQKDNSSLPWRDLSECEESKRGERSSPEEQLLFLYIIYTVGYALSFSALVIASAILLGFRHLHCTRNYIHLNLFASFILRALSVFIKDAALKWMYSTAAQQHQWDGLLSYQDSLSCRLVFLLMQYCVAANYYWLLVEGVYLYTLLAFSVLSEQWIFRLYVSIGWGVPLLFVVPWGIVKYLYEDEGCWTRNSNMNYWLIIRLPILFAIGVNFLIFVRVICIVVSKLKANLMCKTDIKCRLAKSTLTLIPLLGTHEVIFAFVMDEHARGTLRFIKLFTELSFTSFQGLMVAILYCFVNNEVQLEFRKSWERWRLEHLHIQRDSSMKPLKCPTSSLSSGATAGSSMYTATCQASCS
T2 sequence (P47871 26-477): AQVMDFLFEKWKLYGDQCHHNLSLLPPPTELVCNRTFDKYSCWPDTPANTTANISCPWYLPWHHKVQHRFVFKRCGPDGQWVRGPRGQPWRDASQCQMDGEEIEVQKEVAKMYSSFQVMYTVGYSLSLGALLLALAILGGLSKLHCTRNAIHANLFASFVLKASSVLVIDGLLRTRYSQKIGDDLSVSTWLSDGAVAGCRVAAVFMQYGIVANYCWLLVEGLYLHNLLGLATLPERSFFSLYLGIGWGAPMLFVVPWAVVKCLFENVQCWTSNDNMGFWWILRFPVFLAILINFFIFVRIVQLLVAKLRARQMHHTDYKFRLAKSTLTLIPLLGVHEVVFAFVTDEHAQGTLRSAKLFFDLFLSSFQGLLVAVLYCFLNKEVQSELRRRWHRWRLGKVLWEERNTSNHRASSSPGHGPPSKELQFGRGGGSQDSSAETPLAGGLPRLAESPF

For orientation: pEC50 means −log10 of the EC50, conventionally taken in molar units. Usually Tmax stands for the time from dosing to the highest level. The half-life is the time needed for the level to fall by half in the phase considered. In the case of `CCCCCCCCCCCCCCCC(=O)NCCOCCOCCC(=O)NCCOCCOCCC(=O)NCCCC[C@H](NC(=O)[C@H](CC(=O)O)NC(=O)[C@H](CO)NC(=O)[C@@H](NC(=O)[C@H](Cc1ccccc1)NC(=O)[C@@H](NC(=O)CNC(=O)[C@H](CCC(N)=O)NC(=O)[C@@H](CO)NC(=O)[C@@H](N)Cc1c[nH]cn1)[C@@H](C)O)[C@@H](C)O)C(=O)N[C@@H](CO)C(=O)N[C@@H](CCCCN)C(=O)N[C@@H](Cc1ccc(O)cc1)C(=O)N[C@@H](CC(C)C)C(=O)N[C@@H](CC(=O)O)C(=O)NC(C)(C)C(=O)N[C@@H](CCCNC(=N)N)C(=O)N[C@@H](CCCNC(=N)N)C(=O)N[C@@H](C)C(=O)N[C@@H](CCC(N)=O)C(=O)N[C@@H](CC(=O)O)C(=O)N[C@@H](Cc1ccccc1)C(=O)N[C@H](C(=O)N[C@@H](CCC(N)=O)C(=O)N[C@@H](Cc1c[nH]c2ccccc12)C(=O)N[C@@H](CC(C)C)C(=O)N[C@@H](CCSC)C(=O)N[C@@H](CC(N)=O)C(=O)N[C@H](C(=O)NCC(=O)NCC(=O)N1CCC[C@H]1C(=O)N[C@@H](CO)C(=O)N[C@@H](CO)C(=O)NCC(=O)N[C@@H](C)C(=O)N1CCC[C@H]1C(=O)N1CCC[C@H]1C(=O)N1CCC[C@H]1C(=O)N[C@@H](CO)C(N)=O)[C@@H](C)O)C(C)C` [Compound 5], the GLP-1R/GCGR at human GLP-1R was 0.1. Further, the pEC50 at human GLP-1R (read-out: GLP-1R (EC50)) was 10.22. For the same molecule, the pEC50 at human GCGR (read-out: GCGR (EC50)) was 9.37. Besides, in data set [1] (mouse, in vivo), the clinical adverse effect result is “no clinical adverse effect”, the Tmax was about 12 h and the half-life is 4 to 6 h. In addition, in data set [1] (mouse, in vivo, sc), the peak time entry is “more than 12 hours”. For the same molecule, in the data set with male C57B1/6J mice, the “AUC of blood glucose in all four OGTT curve periods (0-480 min) compared with carrier (PBS)” value (“AUC … compared with carrier (PBS)” for short) is listed as “significantly decreased” and the “effect on oral glucose tolerance” value is “significantly reduced the oral glucose tolerance”. Also, the weight loss result in the data set with DIO mice is “about 20%”. Besides, the “body weight compared with normal saline group” value with DIO mice (P<0.05) is “significantly lower”.

As to `CCCCCCCCCCCCCCCC(=O)N[C@@H](CCC(=O)NCCOCCOCCC(=O)NCCOCCOCCC(=O)NCCCC[C@H](NC(=O)[C@H](CO)NC(=O)[C@H](Cc1ccc(O)cc1)NC(=O)[C@H](CC(=O)O)NC(=O)[C@H](CO)NC(=O)[C@@H](NC(=O)[C@H](Cc1ccccc1)NC(=O)[C@@H](NC(=O)CNC(=O)[C@H](CCC(N)=O)NC(=O)[C@@H](CO)NC(=O)[C@@H](N)Cc1c[nH]cn1)[C@@H](C)O)[C@@H](C)O)C(=O)N[C@@H](CCCCN)C(=O)N[C@@H](CC(C)C)C(=O)N[C@@H](CC(=O)O)C(=O)NC(C)(C)C(=O)N[C@@H](CCCNC(=N)N)C(=O)N[C@@H](CCCNC(=N)N)C(=O)N[C@@H](C)C(=O)N[C@@H](CCC(N)=O)C(=O)N[C@@H](CC(=O)O)C(=O)N[C@@H](Cc1ccccc1)C(=O)N[C@H](C(=O)N[C@@H](CCC(N)=O)C(=O)N[C@@H](Cc1c[nH]c2ccccc12)C(=O)N[C@@H](CC(C)C)C(=O)N[C@@H](CCSC)C(=O)N[C@@H](CC(N)=O)C(=O)N[C@H](C(=O)NCC(=O)NCC(=O)N1CCC[C@H]1C(=O)N[C@@H](CO)C(=O)N[C@@H](CO)C(=O)NCC(=O)N[C@@H](C)C(=O)N1CCC[C@H]1C(=O)N1CCC[C@H]1C(=O)N1CCC[C@H]1C(=O)N[C@@H](CO)C(N)=O)[C@@H](C)O)C(C)C)C(=O)O` [Compound 17], the GLP-1R/GCGR on human GLP-1R is listed as 1.2. Further, the negative-log EC50 (pEC50) at human GCGR (read-out: GCGR (EC50)) was 9.24.

Consider `CSCC[C@H](NC(=O)[C@H](CC(C)C)NC(=O)[C@H](Cc1c[nH]c2ccccc12)NC(=O)[C@H](CCC(N)=O)NC(=O)[C@@H](NC(=O)[C@H](Cc1ccccc1)NC(=O)[C@H](CC(=O)O)NC(=O)[C@H](CCC(N)=O)NC(=O)[C@H](C)NC(=O)[C@H](CCCNC(=N)N)NC(=O)[C@H](CCCNC(=N)N)NC(=O)C(C)(C)NC(=O)[C@H](CC(=O)O)NC(=O)[C@H](CC(C)C)NC(=O)[C@H](CCCCN)NC(=O)[C@H](CCCCNC(=O)CCOCCOCCNC(=O)CCOCCOCCNC(=O)CC[C@H](NC(=O)CCCCCCCCCCCCCCCCC(=O)O)C(=O)O)NC(=O)[C@H](CO)NC(=O)[C@H](Cc1ccc(O)cc1)NC(=O)[C@H](CC(=O)O)NC(=O)[C@H](CO)NC(=O)[C@@H](NC(=O)[C@H](Cc1ccccc1)NC(=O)[C@@H](NC(=O)CNC(=O)[C@H](CCC(N)=O)NC(=O)[C@@H](CO)NC(=O)[C@@H](N)Cc1c[nH]cn1)[C@@H](C)O)[C@@H](C)O)C(C)C)C(=O)N[C@@H](CC(N)=O)C(=O)N[C@H](C(=O)NCC(=O)NCC(=O)N1CCC[C@H]1C(=O)N[C@@H](CO)C(=O)N[C@@H](CO)C(=O)NCC(=O)N[C@@H](C)C(=O)N1CCC[C@H]1C(=O)N1CCC[C@H]1C(=O)N1CCC[C@H]1C(=O)N[C@@H](CO)C(N)=O)[C@@H](C)O` [Compound 18] (H-H[dS]QGTFTSDYSK([PEG2-PEG2-γGlu-C18 diacid])KLD[Aib]RRAQDFVQWLMNTGGPSSGAPPPS-NH2; N-terminus assumed), for which the GLP-1R/GCGR on human GLP-1R worked out at 4.2. The pEC50 on human GCGR (read-out: GCGR (EC50)) was 9.74.

Turning to `CCCCCCCCCCCCCCCC(=O)NCCOCCOCCC(=O)NCCOCCOCCC(=O)NCCCC[C@H](NC(=O)[C@H](C)NC(=O)[C@H](C)NC(=O)[C@H](CCCCN)NC(=O)[C@H](CCC(=O)O)NC(=O)[C@H](CC(=O)O)NC(=O)[C@H](CC(C)C)NC(=O)[C@H](Cc1ccc(O)cc1)NC(=O)[C@H](CCCCN)NC(=O)[C@H](CO)NC(=O)[C@H](Cc1ccc(O)cc1)NC(=O)[C@H](CC(=O)O)NC(=O)[C@H](CO)NC(=O)[C@@H](NC(=O)[C@H](Cc1ccccc1)NC(=O)[C@@H](NC(=O)CNC(=O)[C@H](CCC(N)=O)NC(=O)[C@@H](CO)NC(=O)[C@@H](N)Cc1c[nH]cn1)[C@@H](C)O)[C@@H](C)O)C(=O)N[C@@H](CCC(=O)O)C(=O)N[C@@H](Cc1ccccc1)C(=O)N[C@H](C(=O)N[C@@H](CCC(=O)O)C(=O)N[C@@H](Cc1c[nH]c2ccccc12)C(=O)N[C@@H](CC(C)C)C(=O)N[C@@H](CC(C)C)C(=O)N[C@@H](CC(N)=O)C(=O)NCC(=O)NCC(=O)N1CCC[C@H]1C(=O)N[C@@H](CO)C(=O)N[C@@H](CO)C(=O)NCC(=O)N[C@@H](C)C(=O)N1CCC[C@H]1C(=O)N1CCC[C@H]1C(=O)N1CCC[C@H]1C(=O)N[C@@H](CO)C(N)=O)[C@@H](C)CC` [Compound 23] (H-H[dS]QGTFTSDYSKYLDEKAAK([PEG2-PEG2-Palmitoyl])EFIEWLLNGGPSSGAPPPS-NH2), at human GLP-1R, the negative-log EC50 (pEC50) is 9.89 and the GLP-1R/GCGR was determined as 0.30. Further, at human GCGR, the pEC50 is 9.37. In addition, in data set [1] (IV or SC route, male CD1 mice), the clinical adverse effect entry is listed as “no clinical adverse effect”. Besides, in data set [1] (mouse, in vivo), the Tmax was about 12 h and the half-life lay in the range of 4 to 6 h. Also, in the data set with male C57B1/6J mice, the “AUC … compared with carrier (PBS)” value is “significantly decreased” and the “effect on oral glucose tolerance” value is recorded as “significantly reduced the oral glucose tolerance”.

Turning to `CCCCCCCCCCCCCCCC(=O)N[C@@H](CCC(=O)NCCOCCOCCC(=O)NCCOCCOCCC(=O)NCCCC[C@H](NC(=O)[C@H](C)NC(=O)[C@H](C)NC(=O)[C@H](CCCCN)NC(=O)[C@H](CCC(=O)O)NC(=O)[C@H](CC(=O)O)NC(=O)[C@H](CC(C)C)NC(=O)[C@H](Cc1ccc(O)cc1)NC(=O)[C@H](CCCCN)NC(=O)[C@H](CO)NC(=O)[C@H](Cc1ccc(O)cc1)NC(=O)[C@H](CC(=O)O)NC(=O)[C@H](CO)NC(=O)[C@@H](NC(=O)[C@H](Cc1ccccc1)NC(=O)[C@@H](NC(=O)CNC(=O)[C@H](CCC(N)=O)NC(=O)[C@@H](CO)NC(=O)[C@@H](N)Cc1c[nH]cn1)[C@@H](C)O)[C@@H](C)O)C(=O)N[C@@H](CCC(=O)O)C(=O)N[C@@H](Cc1ccccc1)C(=O)N[C@H](C(=O)N[C@@H](CCC(=O)O)C(=O)N[C@@H](Cc1c[nH]c2ccccc12)C(=O)N[C@@H](CC(C)C)C(=O)N[C@@H](CC(C)C)C(=O)N[C@@H](CC(N)=O)C(=O)NCC(=O)NCC(=O)N1CCC[C@H]1C(=O)N[C@@H](CO)C(=O)N[C@@H](CO)C(=O)NCC(=O)N[C@@H](C)C(=O)N1CCC[C@H]1C(=O)N1CCC[C@H]1C(=O)N1CCC[C@H]1C(=O)N[C@@H](CO)C(N)=O)[C@@H](C)CC)C(=O)O` [Compound 24] (H-H[dS]QGTFTSDYSKYLDEKAAK([PEG2-PEG2-γGlu-Palmitoyl])EFIEWLLNGGPSSGAPPPS-NH2), on human GLP-1R, the GLP-1R/GCGR amounted to 0.28. At human GCGR, this molecule showed a pEC50 of 9.24. The clinical adverse effect result in data set [1] (IV or SC route, male CD1 mice) is “no clinical adverse effect”. In data set [1] (mouse, in vivo), the Tmax was about 12 h and the half-life lay within 4 to 6 h. Moreover, in the data set with male C57B1/6J mice, the “AUC … compared with carrier (PBS)” value is “significantly decreased” and the “effect on oral glucose tolerance” value is on record as “significantly reduced the oral glucose tolerance”.
